In patent publication US10414759B2, “Phenylthiazoles and uses thereof” (Purdue Research Foundation, priority 2017, dated 2019):
≈ marks a conversion by molar mass, not a printed value.

What was measured:
[1] = test system: NRS119 (MRSA); assay: MIC/MBC clinical isolate panel (Table 3); type: cell-based, S. aureus; details: Staphylococcus aureus
Experimental: (§1) Bacteria were cultured in cation-adjusted Mueller Hinton broth in a 96-well plate. Compounds, using triplicate samples, were added to the plate and serially diluted. […] Plates were visually inspected and the MIC was categorized as the concentration at which no visible growth of bacteria was observed. The average of triplicate MIC determinations is reported.
(§2) A bacterial solution equivalent to 0.5 McFarland standard was prepared and diluted in cation-adjusted Mueller-Hinton broth (CAMHB) to achieve a bacterial concentration of about 5×10^5 CFU/mL and seeded in 96-well plates. Enterococcus faecium was diluted in brain heart infusion broth. Enterococcus faecalis, Streptococcus pneumonia and Listeria monocytogenes were diluted in tryptone soya broth (TSB).

[2] = test system: NRS123 (MRSA USA400); assay: MIC/MBC clinical isolate panel (Table 3); type: cell-based, S. aureus; details: Staphylococcus aureus
Experimental: as §1, §2

[3] = test system: NRS382 (MRSA USA100); assay: MIC/MBC clinical isolate panel (Table 3); type: cell-based, S. aureus; details: Staphylococcus aureus
Experimental: as §1, §2

[4] = test system: NRS383 (MRSA USA200); assay: MIC/MBC clinical isolate panel (Table 3); type: cell-based, S. aureus; details: Staphylococcus aureus
Experimental: as §1, §2

[5] = test system: NRS384 (MRSA USA300); assay: MIC/MBC clinical isolate panel (Table 3); type: cell-based, S. aureus; details: Staphylococcus aureus
Experimental: as §1, §2

[6] = test system: NRS72 (MSSA); assay: MIC/MBC clinical isolate panel (Table 3); type: cell-based, S. aureus; details: Staphylococcus aureus
Experimental: as §1, §2

[7] = test system: VRSA10; assay: MIC/MBC clinical isolate panel (Table 3); type: cell-based, S. aureus; details: Staphylococcus aureus
Experimental: as §1, with “MRSA clinical isolates, and vancomycin-resistant Staphylococcus aureus (VRSA) strain were obtained through the Network of Antimicrobial Resistance in Staphylococcus aureus (NARSA) program. In addition, vancomycin-resistant Enterococcus faecium (VRE) strain was obtained from the ATCC. Bacteria” for “Bacteria”
(§3) The minimum inhibitory concentration (MIC) of tested compounds and control antibiotics were determined using the broth microdilution method in accordance with the recommendations contained in the Clinical and Laboratory Standards Institute guidelines, against methicillin-sensitive (ATCC 6538 and NRS107), methicillin-resistant (MRSA), and vancomycin-resistant (VRSA) Staphylococcus aureus, Staphylococcus epidermidis, Enterococcus faecalis, E. faecium, Listeria monocytogenes, and Streptococcus pneumoniae clinical isolates. A bacterial solution equivalent to 0.5 McFarland standard was prepared and diluted in cation-adjusted Mueller-Hinton broth (CAMHB) to achieve a bacterial concentration of about 5×10^5 CFU/mL and seeded in 96-well plates. Enterococcus faecium was diluted in brain heart infusion broth. Enterococcus faecalis, Streptococcus pneumonia and Listeria monocytogenes were diluted in tryptone soya broth (TSB). Compounds and control drugs were added in the first row of 96-well plates and serially diluted (to achieve a concentration gradient ranging from 128 to 1 μg/mL). Plates were then incubated aerobically at 37° C. for at least 18 hours. The minimum bactericidal concentration (MBC) of the active compounds was tested by plating 5 μL from wells with no growth onto Tryptic soy agar (TSA) plates.

[8] = test system: VRE ATCC 700221; assay: MIC/MBC clinical isolate panel (Table 3); type: cell-based, Enterococcus faecium; details: Enterococcus
Experimental: as §1, with “MRSA clinical isolates, and vancomycin-resistant Staphylococcus aureus (VRSA) strain were obtained through the Network of Antimicrobial Resistance in Staphylococcus aureus (NARSA) program. In addition, vancomycin-resistant Enterococcus faecium (VRE) strain was obtained from the ATCC. Bacteria” for “Bacteria”
as §3

[9] = test system: MRSA (USA300); assay: Time-kill assay; type: cell-based, Staphylococcus aureus
Experimental: Aliquots (100 μL) were taken from each sample after 2, 4, 6, 8, 10, 12, and 24 hours, serially diluted in phosphate-buffered saline, and transferred to Trypticase soy agar (TSA) (Becton, Dickinson and Company, Sparks, Md., USA) plates. Plates were incubated at 37° C. for at least 16 hours before counting viable CFU/mL to determine the time required to reduce the bacterial cell count by 3-log10.

[10] = test system: VRS10 (VRSA); assay: MIC/MBC S. aureus strains (Table 8); type: cell-based; details: Staphylococcus aureus, VRSA
Experimental: as §3

[11] = test system: VRS12 (VRSA); assay: MIC/MBC S. aureus strains (Table 8); type: cell-based; details: Staphylococcus aureus, VRSA
Experimental: as §3

[12] = test system: Enterococcus faecium ATCC 700221 (VRE); assay: MIC/MBC Gram-positive pathogens (Table 9); type: cell-based; details: Enterococcus faecium
Experimental: as §3

[13] = test system: Enterococcus faecalis ATCC 51299 (VRE); assay: MIC/MBC Gram-positive pathogens (Table 9); type: cell-based; details: Enterococcus faecalis
Experimental: as §2

[14] = test system: methicillin-sensitive S. aureus (MSSA), MRSA and VRSA strains; assay: MIC/MBC summary over the S. aureus strain panel; type: cell-based
Experimental: as §3

[15] = test system: MRSA USA300 (NRS384) biofilm; assay: MRSA biofilm eradication, microtiter dish biofilm formation assay; type: cell-based, Staphylococcus aureus
Experimental: The bacterial suspension was removed and compounds were added at concentrations ranging from 128 to 1 μg/mL in TSB. Compounds were incubated with the biofilm at 37° C. for 24 hours. In order to quantify the biofilm mass, the bacterial suspension was removed and wells were washed with phosphate-buffered saline to remove planktonic bacteria. An aliquot of 0.1% crystal violet was added to each well to stain biofilm mass. After 30 minutes, wells were washed with sterile water and dried. Wells were de-stained using 100% ethanol prior to quantifying biofilm mass using a spectrophotometer (OD595). Data are presented as percent eradication of MRSA USA300 biofilm for each test agent relative to the negative (DMSO) control wells. Data were analyzed using two-way ANOVA with post-hoc Sidak's test for multiple comparisons (P<0.05).

[16] = test system: methicillin-sensitive S. aureus (MSSA), MRSA and VRSA strains; details: literature (Moran, N. Engl. J. Med. 2006); cited from earlier work

CN[C@H](CC(C)C)C(=O)N[C@H]1C(=O)N[C@@H](CC(N)=O)C(=O)N[C@H]2C(=O)N[C@H]3C(=O)N[C@H](C(=O)N[C@H](C(=O)O)c4cc(O)cc(O)c4-c4cc3ccc4O)[C@H](O)c3ccc(c(Cl)c3)Oc3cc2cc(c3O[C@@H]2O[C@H](CO)[C@@H](O)[C@H](O)[C@H]2O[C@H]2C[C@](C)(N)[C@H](O)[C@H](C)O2)Oc2ccc(cc2Cl)[C@H]1O [Vancomycin, vancomycin, reference compound]
MIC [1]: 1 µg/mL (≈ 0.69 µM)
MIC [2]: 1 µg/mL (≈ 0.69 µM)
MIC [3]: 1 µg/mL (≈ 0.69 µM)
MIC [4]: 1 µg/mL (≈ 0.69 µM)
MIC [5]: 1 µg/mL (≈ 0.69 µM)
MIC [6]: 2 µg/mL (≈ 1.38 µM)
MBC [7]: > 64 µg/mL
MIC [7]: > 64 µg/mL
MBC [8]: > 64 µg/mL
MIC [8]: > 64 µg/mL
time to three-log10 reduction in the initial inoculum of MRSA ([9]; 3.0×MIC): 24 hours
time required to reduce the MRSA inoculum to zero colony forming units ([9]; MRSA US300, 3.0×MIC): 24 h
MBC [10]: > 64 µg/mL
MIC [10]: > 64 µg/mL
MBC [11]: > 64 µg/mL
MIC [11]: > 64 µg/mL
MBC [12]: > 64 µg/mL
MIC [12]: > 64 µg/mL
MBC [13]: 64 µg/mL (≈ 44.2 µM)
MIC range against MRSA [14]: 1 to 2 µg/mL
MRSA biofilm mass disrupted ([15]; at 1×MIC): 3%
reduction of MRSA biofilm mass ([15]; at 32×MIC): 34%

CCO/N=C(\C(=O)N[C@@H]1C(=O)N2C(C(=O)[O-])=C(Sc3nc(-c4cc[n+](C)cc4)cs3)CS[C@H]12)c1nsc(N)n1 [cefatroline]
MIC range against MRSA and VRSA, reported [16]: 0.5 to 4 µg/mL
